Test results: ChEMBL document CHEMBL6092187, “Enantiomerically Pure Indazole Bioisosteres of Ifenprodil and Ro 25-6981 as Negative Allosteric Modulators of NMDA Receptors with the GluN2B Subunit” (J Med Chem, 2024)
pKi: −log10 of the molar value.

Tests used:
physchem = conditions: n-octanol/3-morpholinopropanesulfonic acid (MOPS) buffer, pH 7.4
[1] = biological target: Glutamate receptor ionotropic, NMDA 2B (Homo sapiens, UniProt Q13224); assay: Displacement of [3H]ifenprodil from human GluN2B receptor extracted from mouse LTK- cell membrane assessed as inhibition constant by competitive binding assay; assay type: cell membranes
Glutamate receptor ionotropic, NMDA 2B, sequence (Q13224 whole entry): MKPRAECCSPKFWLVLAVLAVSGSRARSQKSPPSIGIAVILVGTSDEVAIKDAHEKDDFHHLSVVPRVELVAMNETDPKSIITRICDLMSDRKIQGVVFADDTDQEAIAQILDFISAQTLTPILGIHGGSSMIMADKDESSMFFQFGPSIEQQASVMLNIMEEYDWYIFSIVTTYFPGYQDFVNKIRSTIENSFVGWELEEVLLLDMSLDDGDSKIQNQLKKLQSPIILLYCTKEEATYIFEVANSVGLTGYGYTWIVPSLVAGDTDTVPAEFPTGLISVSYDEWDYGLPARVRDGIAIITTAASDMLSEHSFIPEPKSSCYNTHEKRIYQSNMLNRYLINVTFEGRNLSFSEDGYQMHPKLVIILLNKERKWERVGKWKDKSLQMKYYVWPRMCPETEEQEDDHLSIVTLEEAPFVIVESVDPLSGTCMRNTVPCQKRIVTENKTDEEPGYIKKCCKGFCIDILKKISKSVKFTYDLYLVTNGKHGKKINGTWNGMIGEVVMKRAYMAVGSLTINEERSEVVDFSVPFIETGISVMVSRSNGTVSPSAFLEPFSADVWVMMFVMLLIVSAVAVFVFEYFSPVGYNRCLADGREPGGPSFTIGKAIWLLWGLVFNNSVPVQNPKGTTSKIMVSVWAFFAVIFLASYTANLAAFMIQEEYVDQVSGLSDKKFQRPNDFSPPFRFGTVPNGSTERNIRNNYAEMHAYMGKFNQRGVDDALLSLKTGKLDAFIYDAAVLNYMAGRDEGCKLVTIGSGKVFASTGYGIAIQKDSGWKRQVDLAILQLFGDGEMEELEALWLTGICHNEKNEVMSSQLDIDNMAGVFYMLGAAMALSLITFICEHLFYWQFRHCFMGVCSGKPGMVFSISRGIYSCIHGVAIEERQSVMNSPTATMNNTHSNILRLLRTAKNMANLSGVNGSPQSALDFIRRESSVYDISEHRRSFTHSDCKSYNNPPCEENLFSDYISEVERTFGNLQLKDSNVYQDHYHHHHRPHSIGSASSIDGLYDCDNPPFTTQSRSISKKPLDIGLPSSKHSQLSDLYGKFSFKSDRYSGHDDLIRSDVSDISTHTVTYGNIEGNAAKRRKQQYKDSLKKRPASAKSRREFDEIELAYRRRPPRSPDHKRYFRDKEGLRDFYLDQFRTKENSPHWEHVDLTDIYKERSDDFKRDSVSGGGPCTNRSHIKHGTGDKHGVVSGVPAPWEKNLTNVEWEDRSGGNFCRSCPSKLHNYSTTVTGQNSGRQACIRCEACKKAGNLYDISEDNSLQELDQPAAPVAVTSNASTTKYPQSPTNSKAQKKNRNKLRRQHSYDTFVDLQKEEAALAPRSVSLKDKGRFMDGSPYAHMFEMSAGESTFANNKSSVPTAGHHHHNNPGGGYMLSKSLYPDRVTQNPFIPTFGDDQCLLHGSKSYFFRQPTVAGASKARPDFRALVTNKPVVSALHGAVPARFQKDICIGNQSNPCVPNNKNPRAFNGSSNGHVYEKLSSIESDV

Albumin = Albumin (Homo sapiens, UniProt P02768); assay: Binding affinity to human serum albumin measured after 60 mins by high performance affinity chromatography based LC-MS analysis; conditions: 1 h
Albumin, sequence (P02768 whole entry): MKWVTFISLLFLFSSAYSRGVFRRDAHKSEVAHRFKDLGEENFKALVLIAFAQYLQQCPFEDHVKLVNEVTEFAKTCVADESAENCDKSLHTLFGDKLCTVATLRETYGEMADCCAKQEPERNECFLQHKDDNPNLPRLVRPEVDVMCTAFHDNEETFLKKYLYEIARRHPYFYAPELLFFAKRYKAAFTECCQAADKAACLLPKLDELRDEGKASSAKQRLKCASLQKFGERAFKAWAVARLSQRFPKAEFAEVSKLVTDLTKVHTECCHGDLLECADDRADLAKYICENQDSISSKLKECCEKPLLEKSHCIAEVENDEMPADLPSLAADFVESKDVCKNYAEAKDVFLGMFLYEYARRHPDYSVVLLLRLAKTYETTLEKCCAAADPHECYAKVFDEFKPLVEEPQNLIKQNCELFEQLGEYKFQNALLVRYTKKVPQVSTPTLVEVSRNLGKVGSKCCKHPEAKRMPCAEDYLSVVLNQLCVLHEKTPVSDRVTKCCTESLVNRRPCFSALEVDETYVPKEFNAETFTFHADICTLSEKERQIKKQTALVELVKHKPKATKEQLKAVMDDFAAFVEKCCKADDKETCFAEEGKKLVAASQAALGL

[2] = mouse, microsomes, 1.5 h
Description: Drug metabolism in mouse liver microsomes assessed as glucuronic acid conjugates formation measured after 90 mins in presence of UDP-GA by LC-MS analysis

[3] = Metabolic stability in human liver microsomes assessed as half-life at 10 uM measured after 120 mins by LC-MS/MS analysis; assay type: ADME, Microsome
in vitro = conditions: mouse, liver microsomes
Description: Metabolic stability in mouse liver microsomes assessed as parent compound remaining measured after 90 mins in presence of NADPH by HPLC analysis

[4] = biological target: Sigma non-opioid intracellular receptor 1 (Cavia porcellus, UniProt Q60492); assay: Displacement of [3H](+)-pentazocine from sigma1 receptor in guniea pig brain membrane assessed as inhibition constant by competitive binding assay; assay type: cell membranes
Sigma non-opioid intracellular receptor 1, sequence (Q60492 whole entry): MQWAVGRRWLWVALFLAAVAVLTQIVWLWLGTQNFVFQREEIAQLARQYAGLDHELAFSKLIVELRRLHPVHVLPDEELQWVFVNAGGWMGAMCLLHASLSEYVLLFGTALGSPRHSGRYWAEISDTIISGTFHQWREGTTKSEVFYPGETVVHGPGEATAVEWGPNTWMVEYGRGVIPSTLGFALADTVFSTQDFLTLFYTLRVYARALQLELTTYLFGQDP

[5] = biological target: T1, Sigma intracellular receptor 2 (Rattus norvegicus, UniProt Q5U3Y7); assay: Displacement of [3H](+)-pentazocine from sigma2 receptor in rat liver membrane assessed as inhibition constant by competitive binding assay; assay type: cell membranes
T1 sequence (Q5U3Y7 whole entry): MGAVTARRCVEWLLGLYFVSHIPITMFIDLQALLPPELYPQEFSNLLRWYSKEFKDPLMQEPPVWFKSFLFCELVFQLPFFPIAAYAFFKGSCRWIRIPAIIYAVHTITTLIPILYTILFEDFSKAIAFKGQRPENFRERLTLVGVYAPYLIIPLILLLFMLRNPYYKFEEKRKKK

SMILES | logD (physchem) | pKi [1] | Activity (Albumin) | Drug metabolism [2] | half-life at 10 µM [3] | remaining at 1.5 h (in vitro) | pKi [4] | pKi [5]
C[C@@H](CN1CCC(Cc2ccccc2)CC1)[C@@H](O)c1ccc(O)cc1 | 1.9 | 6.87 | 82% | metabolite_detected | 23.7 min | 5% | – | –
C[C@H]([C@@H](O)c1ccc2[nH]ncc2c1)N1CCC(Cc2ccccc2)CC1 | – | – | 92% | – | – | – | 6.50 | 6.58
C[C@H](CN1CCC(Cc2ccccc2)CC1)[C@@H](O)c1ccc2[nH]ncc2c1 | – | – | 93% | – | – | – | 7.37 | 7.38
C[C@H](CN1CCC(Cc2ccccc2)CC1)[C@H](O)c1ccc2[nH]ncc2c1 (stereo in doubt; 10a) | – | – | 89% | – | – | – | 7.62 | 6.95
C[C@@H](CN1CCC(Cc2ccccc2)CC1)[C@H](O)c1ccc2[nH]ncc2c1 (stereo in doubt; 10cd) | – | – | – | – | – | – | 7.36 | 7.24
C[C@@H]([C@H](O)c1ccc2[nH]ncc2c1)N1CCC(Cc2ccccc2)CC1 (stereo in doubt; 11a) | – | – | 92% | – | – | – | 7.02 | 7.48
C[C@@H]([C@H](O)c1ccc2[nH]ncc2c1)N1CCC(Cc2ccccc2)CC1 (stereo in doubt; 11ab) | – | – | – | – | – | – | 7.42 | 6.61
C[C@H]([C@H](O)c1ccc2[nH]ncc2c1)N1CCC(Cc2ccccc2)CC1 (stereo in doubt; 11cd) | – | – | – | – | – | – | 7.47 | 7.72
CC(C(O)c1ccc(O)cc1)N1CCC(Cc2ccccc2)CC1 (configuration not stated) [IFENPRODIL] | 1.43 | – | 84% | metabolite_detected | – | 91.4% | – | –

Continued, values first:

logD (physchem) | pKi [1] | Activity (Albumin) | Drug metabolism [2] | half-life at 10 µM [3] | remaining at 1.5 h (in vitro) | pKi [4] | pKi [5] | SMILES
– | – | 91% | – | – | – | 6.28 | 6.25 | C[C@@H]([C@@H](O)c1ccc2[nH]ncc2c1)N1CCC(Cc2ccccc2)CC1
– | – | 89% | – | – | – | 7.68 | 6.68 | C[C@@H](CN1CCC(Cc2ccccc2)CC1)[C@@H](O)c1ccc2[nH]ncc2c1
– | – | – | – | – | – | 7.25 | 6.41 | C[C@H](CN1CCC(Cc2ccccc2)CC1)[C@H](O)c1ccc2[nH]ncc2c1 (stereo in doubt; 10ab)
– | – | 93% | – | – | – | 7.34 | 6.57 | C[C@@H](CN1CCC(Cc2ccccc2)CC1)[C@H](O)c1ccc2[nH]ncc2c1 (stereo in doubt; 10c)
– | – | 90% | – | – | – | 6.17 | 6.95 | C[C@H]([C@H](O)c1ccc2[nH]ncc2c1)N1CCC(Cc2ccccc2)CC1 (stereo in doubt; 11c)
